We go through four molecules from patent US20090092553A1, “MONOCARBOXYLATE TRANSPORTERS EXPRESSED IN CANCER CELLS” (Xenoport,Inc., priority 2003, published 2009).

Experiment [1] addresses T1, MCT1 (Homo sapiens, UniProt P53985).
T1 sequence (P53985 1-500): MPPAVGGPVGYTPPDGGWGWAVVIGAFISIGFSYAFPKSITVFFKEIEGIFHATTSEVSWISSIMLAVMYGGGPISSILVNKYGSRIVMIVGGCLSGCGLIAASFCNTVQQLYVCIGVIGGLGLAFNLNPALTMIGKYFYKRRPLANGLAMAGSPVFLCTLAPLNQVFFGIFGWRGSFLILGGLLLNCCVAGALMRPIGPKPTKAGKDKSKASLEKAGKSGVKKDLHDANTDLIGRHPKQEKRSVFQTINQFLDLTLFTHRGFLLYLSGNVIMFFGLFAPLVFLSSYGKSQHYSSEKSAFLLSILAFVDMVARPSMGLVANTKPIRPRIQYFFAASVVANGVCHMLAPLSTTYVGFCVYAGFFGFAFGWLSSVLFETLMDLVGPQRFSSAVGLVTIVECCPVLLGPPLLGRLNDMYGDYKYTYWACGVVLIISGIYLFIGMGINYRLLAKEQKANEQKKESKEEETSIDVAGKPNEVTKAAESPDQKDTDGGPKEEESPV
As to the kind of experiment: HEK cell intracellular pH (BCECF) / phloretin inhibition assay. The class given is cell-based. Conditions: HEK cells; for effect on the intracellular pH response to lactate: applied together with lactate. From the text: Because MCT1 transports both the carboxylate anion and the corresponding proton, a pH measuring assay was developed to measure net transport of protons into the cytoplasm. Intracellular pH can be measured by a pH-sensitive fluorescent dye such as BCECF. […] In the phloretin inhibition assay, the HEK cells are first exposed to a plurality of solutions containing various concentrations of the test compound (in FIG. 3, the model test compound is lactate) and then to the same solutions to which have been added a set (0.25 mM) concentration of phloretin. Thus, FIG. 3 is a graph of lactate concentration ([L]) versus the percent of maximum pH change found with administration of the highest concentration of the test compound (lactate) alone. […] This is because MCT1 co-transports lactate and a proton into the HEK cells, causing their internal pH to decrease. This pH lowering effect is shown by the characteristic reverse-S-shaped dose response upper curve in FIG. 3. When the cells are exposed to the solutions containing both lactate and phloretin, the phloretin inhibits the lactate uptake by MCT1 and there is little pH change in the cells, as shown by the relatively flat lower curve in FIG. 3. The phloretin inhibition assay can also be used to determine those carboxylic acids that are actively transported MCT substrates from those that are only passively absorbed across the cell membrane. In the latter case, when a passive absorbed acid is applied to HEK cells, there is an intracellular acidification, which occurs both with and without phloretin.
FIG. 4 is a graph of 2-TPGA concentration ([2-TPGA]) versus the relative percent decrease in intracellular pH compared to a standard decrease in intracellular pH caused by exposure of the cells to 20 mM lactate solution. When 0.25 mM phloretin was applied to these cells in addition to 2-TPGA, MCT1 transport was blocked and no significant pH change was detected.
FIG. 5 is a graph of sulfasalazine concentration ([sulfasalazine]) versus the relative percent decrease in intracellular pH compared to a standard decrease in intracellular pH caused by exposure of the cells to 20 mM lactate solution.

In experiment [2] the target is T2, MCT4 (Homo sapiens, UniProt O15427).
T2 sequence (O15427 1-465): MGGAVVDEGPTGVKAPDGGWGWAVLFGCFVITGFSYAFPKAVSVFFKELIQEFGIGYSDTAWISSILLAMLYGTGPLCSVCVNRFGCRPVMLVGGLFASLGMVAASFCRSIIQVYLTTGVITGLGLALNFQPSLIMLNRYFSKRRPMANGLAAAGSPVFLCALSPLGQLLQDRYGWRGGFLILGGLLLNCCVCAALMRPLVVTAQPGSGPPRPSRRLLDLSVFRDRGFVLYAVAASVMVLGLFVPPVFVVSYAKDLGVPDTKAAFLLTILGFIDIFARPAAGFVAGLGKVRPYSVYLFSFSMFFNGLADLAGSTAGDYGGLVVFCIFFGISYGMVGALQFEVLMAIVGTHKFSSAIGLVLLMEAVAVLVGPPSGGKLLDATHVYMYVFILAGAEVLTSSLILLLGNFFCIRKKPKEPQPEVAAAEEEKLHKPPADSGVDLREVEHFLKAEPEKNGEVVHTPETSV
In words: Xenopus oocyte ROMK electrophysiological pH assay, MCT4. The format is cell-based. The arrangement: The complete open reading frame was cloned into a Xenopus oocyte expression plasmid; expressed in transfected cells; host or cells: Xenopus oocytes injected with cRNA.

The target of experiment [3] is T3, MCT1 (Homo sapiens, UniProt P53985, D490E).
T3 sequence (P53985 1-500 D490E): T1 sequence (P53985 1-500) with D490E
In words: Xenopus oocyte ROMK electrophysiological pH assay, MCT1. The format is cell-based.

For experiment [4], the target named is T1, MCT1. Particulars: cited from earlier work.
The target in experiment [5] is T2, MCT4. Particulars: cited from earlier work.

SMILES strings stand for the structures. Residue numbers refer to the chain shown, from its start.

With `O=C(O)c1cc(/N=N/c2ccc(S(=O)(=O)Nc3ccccn3)cc2)ccc1O` [sulfasalazine], the “effect on the intracellular pH response to lactate” value on MCT1 [1] is listed as “inhibitor of MCT1”.

`O=C(CCc1ccc(O)cc1)c1c(O)cc(O)cc1O` [phloretin]: the “effect of co-application with lactate on the potassium current” value on MCT4 [2] (oocytes co-expressing ROMK and MCT4, 350 μM phloretin and 10 mM lactate) is given as “completely blocks the effect of lactate on the potassium current”. At MCT1 [1], the “intracellular pH change when applied alone” value is “does not cause an intracellular pH change” and the “effect on the intracellular pH response to lactate” value is listed as “completely blocks the lactate response”. Besides, the “effect of co-application with lactate on the potassium current” value at MCT1 [3] (oocytes co-expressing ROMK and MCT1, 350 μM phloretin and 10 mM lactate) is “completely blocks the effect of lactate on the potassium current”.

Turning to `CC(O)C(=O)O` (centres unmarked) [lactate], the “effect on ROMK potassium current” value is given as “strong inhibition of the potassium current” at MCT4 [2] (oocytes co-expressing ROMK and MCT4, 10 mM lactate solution); “strong inhibition of the potassium current” on MCT1 [3] (oocytes co-expressing ROMK and MCT1, 10 mM lactate solution). Also, the affinity for lactate was around 2 mM at MCT1 [4] and around 40 mM on MCT4 [5]. For the same molecule, on MCT1 [1], the “intracellular pH change when applied alone” value is listed as “dose-dependent intracellular acidification”.

For the molecule `O=C(O)C(=O)c1cccs1` [Compound 2-TPGA, 2-thiophene glyoxylic acid], at MCT1 [1] (FIG. 4), the “substrate status from intracellular pH change with and without 0.25 mM phloretin” value was “substrate for, and is actively transported by, MCT1”.
